The results in this text go back to patent US9125926B2, “Vicenin 2 and analogues thereof for use as an antispasmodic and/or prokinetic agent” (priority 2011, dated 2015).

≈ marks a conversion by molar mass, not a printed value.

The term EC50 denotes the midpoint of the concentration-response curve.

For data set [1], the system named is rat ileum. Briefly: Rat ileum contraction induced by increasing concentrations of acetylcholine (neurotropic antispasmodic effect). The method, then: (§1) An isolated vicenin 2 compound was tested for its antispasmodic effect with respect to the cholinergic system and with respect to nonspecific contraction mediated by Ba^++. Therefore, rat ileum was precontracted with increasing concentrations of either acetylcholine or Ba^++. The shift of either concentration response curve by the compound was determined. […] The dose of vicenin 2 for humans was estimated to be between 5 and 15 μg/70 kg b.w. which will correspond to 0.071 and 0.214 μg/kg b.w. Due to the increased metabolism in rodents compared to humans the doses were calculated as approx. between 0.5 and 1.49 μg/kg b.w. The central (blood) compartment (hydrophilic extracts) is approx. 7% of whole body volume, i.e. between 0.5/70 g and 1.4 μg/70 g blood. Since blood is in direct contact with ileum, a concentration of 7 to 20.86 μg/kg (0.007 to 0.021 μg/g) is expected for ileum. […] Therefore, it was reasonable to translate these in vivo calculations into the in vitro experiments and in these experiments 10 and 100 μl of a stock solution per 10 ml incubation bath were used. […] Under a protocol approved by the Animal Care and Use Committee of Munster, Germany, male and female rats (Charles River, Sulzfeld, Germany) weighing 200 to 320 g were used. The rats were anesthetized (CO2). The proximal ileum was removed, washed and placed in Krebs-Henseleit solution. 1 cm segments were placed in 10 mL organ baths with a resting tension of 1.0 g (preload). One end was attached to a force displacement transducer (lever transducer B40, Typ 373) combined with a two-channel amplifier (type 301, Hugo Sachs Elektronik, March, Germany); for the recording of tension changes a multi-pen recorder was used (Rikadenki Kogyo, Tokio, Japan). The composition of Krebs-Henseleit solution was (mM): […] The solution was kept at 37° C., pH 7.4 and gassed with carbogen (a 95% O2/5% CO2 mixture). Equilibration time for the ileum before starting the experiment was at least 30 min. After the tissues had been pre-treated with the extracts for 3 min cumulative concentration response curves using either acetylcholine or barium ion were recorded isotonically in the organ bath, and the effect was allowed to reach a steady state at each concentration. The results were normalized to 100% (maximum effect of either acetylcholine or barium ion alone). Differences between entire curves were obtained by comparing F-values of the best fitted curves by using GraphPad-Prism (version 3.00, GraphPad Software, Inc., 1999). P<0.05 was regarded as statistically significant.

The subject of data set [2] is rat ileum. Nature of the data set: Rat ileum contraction induced by increasing concentrations of barium ion (musculotropic antispasmodic effect). As for the experimental part:
as §1

Data set [3] has as its system rat ileum. Nature of the data set: Rat ileum contraction, effect of the compound on its own (spasmolytic effect). Conditions: data as % of maximum acetylcholine effect; FIG. 1. The method, then: An isolated vicenin 2 compound was tested for its antispasmodic effect with respect to the cholinergic system and with respect to nonspecific contraction mediated by Ba^++. Therefore, rat ileum was precontracted with increasing concentrations of either acetylcholine or Ba^++. The shift of either concentration response curve by the compound was determined. […] The dose of vicenin 2 for humans was estimated to be between 5 and 15 μg/70 kg b.w. which will correspond to 0.071 and 0.214 μg/kg b.w. Due to the increased metabolism in rodents compared to humans the doses were calculated as approx. between 0.5 and 1.49 μg/kg b.w. The central (blood) compartment (hydrophilic extracts) is approx. 7% of whole body volume, i.e. between 0.5/70 g and 1.4 μg/70 g blood. Since blood is in direct contact with ileum, a concentration of 7 to 20.86 μg/kg (0.007 to 0.021 μg/g) is expected for ileum. […] Therefore, it was reasonable to translate these in vivo calculations into the in vitro experiments and in these experiments 10 and 100 μl of a stock solution per 10 ml incubation bath were used. […] After the tissues had been pre-treated with the extracts for 3 min cumulative concentration response curves using either acetylcholine or barium ion were recorded isotonically in the organ bath, and the effect was allowed to reach a steady state at each concentration. […]

For data set [4], the system named is murine frontal cortex networks. Briefly: Cortical network activity in vitro, electrophysiological multi-channel recordings on MEA neurochips. It is filed as cell-based, mice. From the text:
Purpose of this example was the evaluation of the acute neuroactive effects of vicenin 2 (named AUC-V) on the neuronal activity of murine frontal cortex networks in vitro by means of electrophysiological multi-channel recordings.
Therefore, in a first step the dose-effect curve of vicenin 2 was plotted by means of cumulatively increasing the substance concentration, so that the spectrum of activity of the substance is optimally covered with 9 concentrations. Concentration from 100 fg/ml, 10 pg/ml, […], 1 ng/ml, 100 ng/ml, 1 μg/ml, 10 μg/ml, 100 μg/ml and 300 μg/ml were used.
Subsequently, the measurements of the dose-effect curve of the test substances were repeated at least 10 times. The recorded electrical activity patterns were characterized by 200 features and their changes were statistically evaluated.
The microelectrode array neurochips (MEA neurochips) were provided by the Center for Network Neuroscience (CNNS) at the University of North Texas. These 5×5 cm^2 glass chips have a central recording matrix with 64 passive electrodes and indium tin oxide conductors. The hydrophobic insulation material surface was activated by a brief butane flame pulse through a stainless steel mask. Thus, cell attachment on a confined adhesive region (5 mm diameter centered on the electrode array) is ensured. The activated surface regions were coated with poly-D-lysine (25 μg/ml; 30-70 kD) and laminin (16 μg/ml). Fabrication techniques and culture methods have been described previously.
Frontal cortex tissue was harvested from embryonic day 15, or day 14 chr:NMRI mice. After ethyl ether anesthesia, mice were sacrificed by cervical dislocation according to the German Animal Protection Act §4. […] Cultures were incubated at 37° C. in a 10% CO2 atmosphere until ready for use, which usually is four weeks to three months after seeding. […]
For extracellular recording, MEA neurochips were placed into sterilized constant-bath recording chambers and maintained at 37° C. […] The signals routinely recorded by these neurochips are located in a range of 15-1800 μV. […]

The test system of data set [5] is murine frontal cortex networks. Nature of the data set: Pattern recognition classification of activity patterns against the NeuroProof database (105 substances). The class given is cell-based, mice. The following applies: AUC-V, all 143. As for the experimental part:
Afterwards, a further analysis was carried out through a pattern-recognition analysis and through comparison with NeuroProof database to determine relevant mechanisms involved in the frontal cortex activity pattern induced changes by each substance.
To clarify the mode of action of the test substance on the activity of cortical networks these experiments were further analyzed using methods of pattern recognition. For each stable concentration activity phase we normalized the 200 spike train parameters by the native reference activity.
Using a feature selection algorithm, on the basis of the reference substances, the 40 most descriptive parameters for all 200 spike train parameters were selected. The rankings of activity features using various score methods based on classification experiments and compared their total correct predictions were calculated. In this manner, the best results for a MDL (minimal description length) modified algorithm were obtained. A training data set with these 40 spike train parameters was established in the form of data records from the reference substances. An artificial neuronal network, multi layer feed forward network and back propagation algorithm […] hidden units was then trained. The respective data records of the four substances were all subsequently classified. A classification against 105 substances in the database was carried out.
The classification against 105 substances using the electrophysiological multi-channel recording of vicenin 2 and the 105 substances identified several activities for vicenin 2.

A short description of data set [6]: Solubility of isolated vicenin 2. The class given is physicochemical.

As for `CN1[C@@H]2CC[C@H]1C[C@@H](OC(=O)C(CO)c1ccccc1)C2` (stereo partly drawn) [Atropine, reference compound], the “shift of the acetylcholine concentration response curve” value with rat ileum [1] (positive control, 5×10^−5 mg/ml, FIG. 2) is listed as “expected competitive neurotropic antispasmodic effect”; with rat ileum [1] (positive control, 5×10^−5 mg/ml, FIG. 2, listed as atropine), “significantly different from the acetylcholine curve”.
On to `COc1ccc(Cc2nccc3cc(OC)c(OC)cc23)cc1OC` [Papaverine, reference compound], for which the “shift of the Ba++ concentration response curve” value with rat ileum [2] (positive control, 4×10^−2 g/ml, FIG. 4) was “expected non-competitive musculotropic antispasmodic effect”; in the data set with rat ileum [2] (positive control, 4×10^−2 g/ml, FIG. 4, listed as papaverine), “significantly different from the acetylcholine curve without additions”.
On to `O=c1cc(-c2ccc(O)cc2)oc2c([C@@H]3O[C@H](CO)[C@@H](O)[C@H](O)[C@H]3O)c(O)c([C@@H]3O[C@H](CO)[C@@H](O)[C@H](O)[C@H]3O)c(O)c12` [vicenin 2, 5,7-Dihydroxy-2-(4-hydroxyphenyl)-6,8-bis[(2S,3R,4R,5S,6R)-3,4,5-trihydroxy-6 (hydroxymethyl)oxan-2-yl]chromen-4-one], for which, in the data set on rat ileum [3], the “effect on rat ileum contraction from its own (direct spasmolytic effect)” value is reported as “slight (not significant) relaxation”. In addition, the “shift of the acetylcholine concentration response curve” value in the data set on rat ileum [1] (0.005 mg/ml final bath concentration, FIG. 2) was “shifted the acetylcholine curve to the right in a competitive manner”; in the data set on rat ileum [1] (0.005 mg/ml final bath concentration, FIG. 2, listed as AUC-V), “significantly different from the acetylcholine curve”; in the data set with rat ileum [1] (0.05 mg/ml final bath concentration, FIG. 3) it was “stronger rightward and downward shift of the acetylcholine curve”; with rat ileum [1] (0.05 mg/ml final bath concentration, FIG. 3, listed as AUC-V) it was “significantly different from the acetylcholine curve”. In addition, the “shift of the Ba++ concentration response curve” value with rat ileum [2] (0.005 mg/ml final bath concentration, FIG. 4) is “shifted the Ba^++ curve downwards”; with rat ileum [2] (0.005 mg/ml final bath concentration, FIG. 4, listed as AUC-V) it was “significantly different from the acetylcholine curve without additions”; in the data set on rat ileum [2] (0.05 mg/ml final bath concentration, FIG. 5) it was “rightward and downward shift of the Ba^++ curve”; in the data set on rat ileum [2] (0.05 mg/ml final bath concentration, FIG. 5, listed as AUC-V), “significantly different from the acetylcholine curve with no further additions”. Moreover, the “effect on burst structure of the network” value in data set [4] is “no affects on the burst structure”. Besides, in data set [4] (Mus musculus, 9 accumulating concentrations, FIG. 6, read-out: EC50 of decrease of the cortical network activity (spike rate)), the EC50 is 2 µg/mL (≈ 3.36 µM). For the same compound, in data set [4] (remaining activity, FIG. 6), the “maximum decrease of the cortical network activity” value is listed as 80 % of the native activity. Besides, the “data records classified as the respective substance” value in data set [5] (classified as Amisulpride) was found to be 15%; in data set [5] (classified as Atropinemethylbromide) it was 12%; in data set [5] (classified as DPDPE), 11%; in data set [5] (classified as Enkephalin) it was 14%; in data set [5] (classified as Eserine), 15%; in data set [5] (classified as Indatraline), 12%. Further, the “data records classified as the respective substance” value in data set [5] (classified as Modafinil) was determined as 12%; in data set [5] (classified as Nicotine), 12%; in data set [5] (classified as Olanzapine), 17%; in data set [5] (classified as Sodium dodecyl sulfate), 12%. The solubility entry in data set [6] is “good solubility”.
